Measurements published in the supplement of paper PMC10307832.

Key:
Assay in all cases: relative viability (nuclei count vs DMSO), 5 days (fraction); higher = more cells survive
201T = tested on: 201T
Outline: (§1)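 Five library-drug doses in √10 steps were combined with a fixed anchor-drug dose, or a single drug was given alone, by pin tool to lung cancer cell lines in 1536-well plates the day after seeding. Nuclei were stained and counted after 5 days. Relative viability is the nuclei count in treated wells over that in vehicle wells, taken as the median of duplicate plates.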

BEN = tested on: BEN
Outline: as §1

COR-L 105 = tested on: COR-L 105
Outline: as §1

EKVX = tested on: EKVX
Outline: as §1

EPLC-272H = tested on: EPLC-272H
Outline: as §1

H3255 = tested on: H3255
Outline: as §1

HCC-44 = tested on: HCC-44
Outline: as §1

HCC-827 = tested on: HCC-827
Outline: as §1

LCLC-97TM1 = tested on: LCLC-97TM1
Outline: as §1

LOU-NH91 = tested on: LOU-NH91
Outline: as §1

LU99A = tested on: LU99A
Outline: as §1

NCI-H1437 = tested on: NCI-H1437
Outline: as §1

NCI-H1666 = tested on: NCI-H1666
Outline: as §1

NCI-H1975 = tested on: NCI-H1975
Outline: as §1

NCI-H2085 = tested on: NCI-H2085
Outline: as §1

NCI-H2087 = tested on: NCI-H2087
Outline: as §1

NCI-H2170 = tested on: NCI-H2170
Outline: as §1

NCI-H2342 = tested on: NCI-H2342
Outline: as §1

NCI-H647 = tested on: NCI-H647
Outline: as §1

NCI-H650 = tested on: NCI-H650
Outline: as §1

PC-3 [JPC-3] = tested on: PC-3 [JPC-3]
Outline: as §1

SW 1573 = tested on: SW 1573
Outline: as §1

CC(=O)O[C@@]12CO[C@@H]1C[C@H](O)[C@@]1(C)C(=O)[C@H](O)C3=C(C)[C@@H](OC(=O)[C@H](O)[C@@H](NC(=O)OC(C)(C)C)c4ccccc4)C[C@@](O)([C@@H](OC(=O)c4ccccc4)[C@H]21)C3(C)C [Docetaxel] + Nc1nc2[nH]cc(CCc3ccc(C(=O)N[C@@H](CCC(=O)O)C(=O)O)cc3)c2c(=O)[nH]1 [Pemetrexed] (partner 0.2 µM)
relative viability (201T; first compound 0.0002 µM): 0.36
relative viability (201T; first compound 0.000632 µM): 0.32
relative viability (201T; first compound 0.002 µM): 0.312
relative viability (201T; first compound 0.006325 µM): 0.424
relative viability (201T; first compound 0.02 µM): 0.255
relative viability (BEN; first compound 0.0002 µM): 0.68
relative viability (BEN; first compound 0.000632 µM): 0.795
relative viability (BEN; first compound 0.002 µM): 0.442
relative viability (BEN; first compound 0.006325 µM): 0.449
relative viability (BEN; first compound 0.02 µM): 0.325
relative viability (COR-L 105; first compound 0.0002 µM): 1.06
relative viability (COR-L 105; first compound 0.000632 µM): 1.12
relative viability (COR-L 105; first compound 0.002 µM): 0.656
relative viability (COR-L 105; first compound 0.006325 µM): 0.492
relative viability (COR-L 105; first compound 0.02 µM): 0.388
relative viability (EKVX; first compound 0.0002 µM): 0.377
relative viability (EKVX; first compound 0.000632 µM): 0.392
relative viability (EKVX; first compound 0.002 µM): 0.288
relative viability (EKVX; first compound 0.006325 µM): 0.209
relative viability (EKVX; first compound 0.02 µM): 0.193
relative viability (EPLC-272H; first compound 0.0002 µM): 0.298
relative viability (EPLC-272H; first compound 0.000632 µM): 0.187
relative viability (EPLC-272H; first compound 0.002 µM): 0.139
relative viability (EPLC-272H; first compound 0.006325 µM): 0.0965
relative viability (EPLC-272H; first compound 0.02 µM): 0.111
relative viability (H3255; first compound 0.0002 µM): 0.494
relative viability (H3255; first compound 0.000632 µM): 0.595
relative viability (H3255; first compound 0.002 µM): 0.437
relative viability (H3255; first compound 0.006325 µM): 0.368
relative viability (H3255; first compound 0.02 µM): 0.359
relative viability (HCC-44; first compound 0.0002 µM): 0.627
relative viability (HCC-44; first compound 0.000632 µM): 0.644
relative viability (HCC-44; first compound 0.002 µM): 0.628
relative viability (HCC-44; first compound 0.006325 µM): 0.602
relative viability (HCC-44; first compound 0.02 µM): 0.491
relative viability (HCC-827; first compound 0.0002 µM): 0.183
relative viability (HCC-827; first compound 0.000632 µM): 0.282
relative viability (HCC-827; first compound 0.006325 µM): 0.238
relative viability (HCC-827; first compound 0.02 µM): 0.215
relative viability (LCLC-97TM1; first compound 0.0002 µM): 0.167
relative viability (LCLC-97TM1; first compound 0.000632 µM): 0.161
relative viability (LCLC-97TM1; first compound 0.002 µM): 0.129
relative viability (LCLC-97TM1; first compound 0.006325 µM): 0.109
relative viability (LCLC-97TM1; first compound 0.02 µM): 0.0702
relative viability (LOU-NH91; first compound 0.0002 µM): 0.373
relative viability (LOU-NH91; first compound 0.000632 µM): 0.367
relative viability (LOU-NH91; first compound 0.002 µM): 0.311
relative viability (LOU-NH91; first compound 0.006325 µM): 0.338
relative viability (LOU-NH91; first compound 0.02 µM): 0.312
relative viability (LU99A; first compound 0.0002 µM): 0.208
relative viability (LU99A; first compound 0.000632 µM): 0.201
relative viability (LU99A; first compound 0.002 µM): 0.217
relative viability (LU99A; first compound 0.006325 µM): 0.207
relative viability (LU99A; first compound 0.02 µM): 0.19
relative viability (NCI-H1437; first compound 0.0002 µM): 0.3
relative viability (NCI-H1437; first compound 0.000632 µM): 0.361
relative viability (NCI-H1437; first compound 0.002 µM): 0.32
relative viability (NCI-H1437; first compound 0.006325 µM): 0.288
relative viability (NCI-H1437; first compound 0.02 µM): 0.213
relative viability (NCI-H1666; first compound 0.0002 µM): 0.946
relative viability (NCI-H1666; first compound 0.000632 µM): 0.808
relative viability (NCI-H1666; first compound 0.002 µM): 0.801
relative viability (NCI-H1666; first compound 0.006325 µM): 0.858
relative viability (NCI-H1666; first compound 0.02 µM): 0.542
relative viability (NCI-H1975; first compound 0.0002 µM): 0.286
relative viability (NCI-H1975; first compound 0.000632 µM): 0.277
relative viability (NCI-H1975; first compound 0.002 µM): 0.232
relative viability (NCI-H1975; first compound 0.006325 µM): 0.18
relative viability (NCI-H1975; first compound 0.02 µM): 0.137
relative viability (NCI-H2085; first compound 0.0002 µM): 0.84
relative viability (NCI-H2085; first compound 0.000632 µM): 0.902
relative viability (NCI-H2085; first compound 0.002 µM): 0.552
relative viability (NCI-H2085; first compound 0.006325 µM): 0.545
relative viability (NCI-H2085; first compound 0.02 µM): 0.301
relative viability (NCI-H2087; first compound 0.0002 µM): 0.553
relative viability (NCI-H2087; first compound 0.000632 µM): 0.509
relative viability (NCI-H2087; first compound 0.002 µM): 0.24
relative viability (NCI-H2087; first compound 0.006325 µM): 0.168
relative viability (NCI-H2087; first compound 0.02 µM): 0.104
relative viability (NCI-H2170; first compound 0.0002 µM): 0.26
relative viability (NCI-H2170; first compound 0.000632 µM): 0.257
relative viability (NCI-H2170; first compound 0.002 µM): 0.251
relative viability (NCI-H2170; first compound 0.006325 µM): 0.177
relative viability (NCI-H2170; first compound 0.02 µM): 0.174
relative viability (NCI-H2342; first compound 0.0002 µM): 0.731
relative viability (NCI-H2342; first compound 0.000632 µM): 0.745
relative viability (NCI-H2342; first compound 0.002 µM): 0.584
relative viability (NCI-H2342; first compound 0.006325 µM): 0.495
relative viability (NCI-H2342; first compound 0.02 µM): 0.493
relative viability (NCI-H647; first compound 0.0002 µM): 0.175
relative viability (NCI-H647; first compound 0.000632 µM): 0.142
relative viability (NCI-H647; first compound 0.002 µM): 0.103
relative viability (NCI-H647; first compound 0.006325 µM): 0.122
relative viability (NCI-H647; first compound 0.02 µM): 0.0856
relative viability (NCI-H650; first compound 0.0002 µM): 0.941
relative viability (NCI-H650; first compound 0.000632 µM): 0.44
relative viability (NCI-H650; first compound 0.002 µM): 0.393
relative viability (NCI-H650; first compound 0.006325 µM): 0.237
relative viability (NCI-H650; first compound 0.02 µM): 0.198
relative viability (PC-3 [JPC-3]; first compound 0.0002 µM): 1.01
relative viability (PC-3 [JPC-3]; first compound 0.000632 µM): 0.713
relative viability (PC-3 [JPC-3]; first compound 0.002 µM): 0.513
relative viability (PC-3 [JPC-3]; first compound 0.006325 µM): 0.265
relative viability (PC-3 [JPC-3]; first compound 0.02 µM): 0.195
relative viability (SW 1573; first compound 0.0002 µM): 0.557
relative viability (SW 1573; first compound 0.000632 µM): 0.478
relative viability (SW 1573; first compound 0.002 µM): 0.236
relative viability (SW 1573; first compound 0.006325 µM): 0.146
relative viability (SW 1573; first compound 0.02 µM): 0.138
